pEC50: −log10 of the molar value.

Experiment [1] has as its target T1, HhTAR1 (Halyomorpha halys, UniProt A0A8A6C5M4).
T1 sequence (A0A8A6C5M4 1-448): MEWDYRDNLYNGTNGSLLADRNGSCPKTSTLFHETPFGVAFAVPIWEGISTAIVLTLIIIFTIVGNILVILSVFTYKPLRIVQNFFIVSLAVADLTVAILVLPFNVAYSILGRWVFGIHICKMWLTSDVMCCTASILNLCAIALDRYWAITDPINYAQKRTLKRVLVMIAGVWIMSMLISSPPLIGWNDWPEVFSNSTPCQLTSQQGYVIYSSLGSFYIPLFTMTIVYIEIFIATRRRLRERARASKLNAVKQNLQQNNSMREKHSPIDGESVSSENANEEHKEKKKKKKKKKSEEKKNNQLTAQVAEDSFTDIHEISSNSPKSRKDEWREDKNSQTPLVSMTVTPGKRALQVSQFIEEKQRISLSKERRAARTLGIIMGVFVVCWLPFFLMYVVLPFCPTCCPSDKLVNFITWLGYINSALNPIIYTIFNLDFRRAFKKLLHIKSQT
The experiment in a line: Fluo-4 calcium mobilization, FlexStation II, HEK […] cells. The format is cell-based.

Experiment [2] has as its target T1, HhTAR1. The format is cell-based.

Regarding `NCCc1ccc(O)cc1` [tyramine], the pEC50 on HhTAR1 [1] was 5.99.

`COC(=O)[C@@H]1[C@H]2C[C@H]3c4[nH]c5ccccc5c4CCN3C[C@@H]2CC[C@@H]1O` [yohimbine]: the Kb at HhTAR1 [2] is 5.5 nM.
